Measurements published in the supplement of paper PMC10307832.

compound: Cc1nc(NC(=O)N2CCC[C@H]2C(N)=O)sc1-c1ccnc(C(C)(C)C(F)(F)F)c1 [Alpelisib]; assay: relative viability (nuclei count vs DMSO), 5 days (fraction); higher = more cells survive; details: 0.04 µM
Procedure, shortened: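 Acceptance criteria were a control CV below 25% and at least one doubling per plate. Lung cancer cell lines in 1536-well plates got five library-drug doses (not always all listed) √10 apart by pinning and were left 5 days with no medium change. Viability divides treated-well nuclei by vehicle-well nuclei and is the median across plates. Nuclei were counted by MetaXpress from 4× Hoechst images.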

Cell Line	relative viability
NCI-H2126	1.02
EPLC-272H	0.898
NCI-H1755	0.989
NCI-H2023	0.876
NCI-H1623	0.853
NCI-H1650	0.935
NCI-H1793	0.851
NCI-H2342	0.927
H3255	1.03
NCI-H1975	0.918
PC-14	1.01
NCI-H1299	1.03
NCI-H1437	1
HOP-62	1.04
HCC-44	0.98
BEN	0.99
LOU-NH91	0.961
NCI-H661	0.973
NCI-H1651	0.891
PC-3 [JPC-3]	1.1
SW 1573	0.98
LK-2	0.885
NCI-H2405	1.02
NCI-H1703	0.89
NCI-H1648	0.712
NCI-H1993	0.862
ChaGo-K-1	0.973

Cell Line	relative viability
NCI-H1355	0.944
HCC-366	0.935
NCI-H1915	1.01
NCI-H838	0.863
A-427	0.98
NCI-H2009	0.974
ABC-1	1.13
EKVX	0.927
NCI-H2087	1.21
NCI-H1734	0.917
LCLC-103H	0.972
Calu-6	0.981
LU99A	0.899
NCI-H460	0.989
NCI-H2170	0.946
SK-LU-1	1.07
NCI-H522	0.939
COR-L23	0.959
HCC-15	1.02
NCI-H1944	0.94
NCI-H1563	0.942
EMC-BAC-2	0.95
NCI-H1792	0.89
NCI-H1395	0.97
LC-2-ad	0.966
NCI-H2085	0.988
NCI-H727	0.904

Cell Line	relative viability
NCI-H647	0.917
HARA	0.921
NCI-H3122	0.981
NCI-H358	0.873
CAL-12T	0.999
COR-L 105	0.931
LCLC-97TM1	0.873
NCI-H520	0.891
EBC-1	0.942
NCI-H2228	0.947
NCI-H23	0.94
HCC-827	1.02
NCI-H2347	1.07
A549	0.905
IA-LM	0.979
LXF-289	0.988
NCI-H1666	0.997
RERF-LC-KJ	0.94
NCI-H650	0.877
NCI-H322M	0.879
NCI-H596	0.94
201T	0.985
SW 900	0.944
SK-MES-1	0.975
NCI-H441	1.1
HCC-78	0.93

same assay, conditions: 0.1265 µM

Cell Line	relative viability
NCI-H2126	1.01
EPLC-272H	0.864
NCI-H1755	1.01
NCI-H2023	0.928
NCI-H1623	0.893
NCI-H1650	0.801
NCI-H1793	0.89
NCI-H2342	1.05
H3255	0.936
NCI-H1975	0.968
PC-14	1
NCI-H1299	1.04
NCI-H1437	0.948
HOP-62	1.06
HCC-44	0.914
BEN	0.913
LOU-NH91	0.806
NCI-H661	1.02
NCI-H1651	1.02
PC-3 [JPC-3]	1.03
SW 1573	0.916
LK-2	0.868
NCI-H2405	0.965
NCI-H1703	0.642
NCI-H1648	0.986
NCI-H1993	0.86
ChaGo-K-1	0.875

Cell Line	relative viability
NCI-H1355	0.96
HCC-366	1
NCI-H1915	0.998
NCI-H838	0.921
A-427	0.886
NCI-H2009	1.05
ABC-1	0.77
EKVX	0.921
NCI-H2087	1.02
NCI-H1734	0.857
LCLC-103H	0.956
Calu-6	0.976
LU99A	0.96
NCI-H460	1.02
NCI-H2170	0.868
SK-LU-1	0.977
NCI-H522	0.903
COR-L23	1.09
HCC-15	0.938
NCI-H1944	1.13
NCI-H1563	0.971
EMC-BAC-2	0.821
NCI-H1792	0.724
NCI-H1395	0.758
LC-2-ad	0.905
NCI-H2085	0.943
NCI-H727	0.894

Cell Line	relative viability
NCI-H647	0.925
HARA	1.17
NCI-H3122	1.02
NCI-H358	0.889
CAL-12T	0.989
COR-L 105	1
LCLC-97TM1	0.845
NCI-H520	0.935
EBC-1	0.904
NCI-H2228	0.881
NCI-H23	0.798
HCC-827	0.935
NCI-H2347	0.97
A549	0.877
IA-LM	0.854
LXF-289	1.11
NCI-H1666	0.98
RERF-LC-KJ	0.914
NCI-H650	0.825
NCI-H322M	0.961
NCI-H596	1.01
201T	0.974
SW 900	0.7
SK-MES-1	0.998
NCI-H441	0.95
HCC-78	0.798

same assay, conditions: 0.4 µM

Cell Line	relative viability
NCI-H2126	0.936
EPLC-272H	0.984
NCI-H1755	0.986
NCI-H2023	0.93
NCI-H1623	1.07
NCI-H1650	1.06
NCI-H1793	0.919
NCI-H2342	0.926
H3255	1.09
NCI-H1975	0.984
PC-14	1.03
NCI-H1299	1.07
NCI-H1437	1.06
HOP-62	1.1
HCC-44	1.02
BEN	1.15
LOU-NH91	0.859
NCI-H661	1.01
NCI-H1651	1.01
PC-3 [JPC-3]	1.13
SW 1573	0.94
LK-2	0.685
NCI-H2405	0.973
NCI-H1703	0.654
NCI-H1648	0.778
NCI-H1993	0.961

Cell Line	relative viability
ChaGo-K-1	1.02
NCI-H1355	1
HCC-366	1.09
NCI-H1915	0.976
NCI-H838	0.933
A-427	0.965
NCI-H2009	1.19
ABC-1	0.886
EKVX	1.12
NCI-H2087	1.08
NCI-H1734	1
LCLC-103H	0.959
Calu-6	1.1
LU99A	1.04
NCI-H460	1.05
NCI-H2170	1.07
SK-LU-1	1.03
NCI-H522	0.923
COR-L23	1.08
HCC-15	1.07
NCI-H1944	0.915
NCI-H1563	0.948
EMC-BAC-2	0.981
NCI-H1792	0.819
NCI-H1395	1
LC-2-ad	1.09

Cell Line	relative viability
NCI-H2085	1.01
NCI-H727	0.893
NCI-H647	1.06
HARA	0.995
NCI-H3122	1.02
NCI-H358	0.95
CAL-12T	1.09
COR-L 105	1.21
LCLC-97TM1	1.01
NCI-H520	1.11
EBC-1	1.15
NCI-H2228	1.04
NCI-H23	0.913
HCC-827	1.05
NCI-H2347	1.12
A549	0.953
IA-LM	1.02
LXF-289	1.05
NCI-H1666	1.13
RERF-LC-KJ	1.01
NCI-H650	0.96
NCI-H322M	0.918
NCI-H596	0.968
201T	0.994
